# Earlier results as cited in US20120294924A1, “Peptide-Lipid Conjugates And Uses Thereof” (priority 2011, published 2012).
# No end group written: not given here.
# Details: qualitative statement, Li et al., Biochimica et Biophysica Acta 1768:411-418, 2007
sequence,measurement,value
"HAEHKVKIGVEQKYGQFPQGTEVTYTCSGNYFLM [Sushi-3, 34mer peptide from a Sushi domain of horseshoe crab Factor C]",binding to LPS,bind to LPS
